Key:
Test in all cases: NCI one-dose SRB anti-proliferative screen
Assay type in all cases: cell-based
786-0 = settings: Homo sapiens; 786-0 (Renal Cancer), NCI one dose 10 µM; read-out: Cell growth inhibition %
How it was run: (§1)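 Single dose, 10 µM; SRB colorimetric read-out; run as part of the 60-line, nine-subpanel tumour panel.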

A549/ATCC = settings: Homo sapiens; A549/ATCC (Non-Small Cell Lung Cancer), NCI one dose 10 µM; read-out: Cell growth inhibition %
How it was run: as §1

ACHN = settings: Homo sapiens; ACHN (Renal Cancer), NCI one dose 10 µM; read-out: Cell growth inhibition %
How it was run: as §1

CAKI-1 = settings: Homo sapiens; CAKI-1 (Renal Cancer), NCI one dose 10 µM; read-out: Cell growth inhibition %
How it was run: as §1

CCRF-CEM = settings: Homo sapiens; CCRF-CEM (Leukemia), NCI one dose 10 µM; read-out: Cell growth inhibition %
How it was run: as §1

COLO 205 = settings: Homo sapiens; COLO 205 (Colon Cancer), NCI one dose 10 µM; read-out: Cell growth inhibition %
How it was run: as §1

DU-145 = settings: Homo sapiens; DU-145 (Prostate Cancer), NCI one dose 10 µM; read-out: Cell growth inhibition %
How it was run: as §1

EKVX = settings: Homo sapiens; EKVX (Non-Small Cell Lung Cancer), NCI one dose 10 µM; read-out: Cell growth inhibition %
How it was run: as §1

HCC-2998 = settings: Homo sapiens; HCC-2998 (Colon Cancer), NCI one dose 10 µM; read-out: Cell growth inhibition %
How it was run: as §1

HS 578T = settings: Homo sapiens; HS 578T (Breast Cancer), NCI one dose 10 µM; read-out: Cell growth inhibition %
How it was run: as §1

IGROV1 = settings: Homo sapiens, IGROV-1; IGROV1 (Ovarian Cancer), NCI one dose 10 µM; read-out: Cell growth inhibition %
How it was run: as §1

KM12 = settings: Homo sapiens; KM12 (Colon Cancer), NCI one dose 10 µM; read-out: Cell growth inhibition %
How it was run: as §1

LOX IMVI = settings: Homo sapiens, LOX IMIV (Melanoma), NCI one dose 10 µM, read-out: Cell growth inhibition %
How it was run: as §1

MALME-3M = settings: Homo sapiens; MALME-3M (Melanoma), NCI one dose 10 µM; read-out: Cell growth inhibition %
How it was run: as §1

MCF7 = settings: Homo sapiens; MCF7 (Breast Cancer), NCI one dose 10 µM; read-out: Cell growth inhibition %
How it was run: as §1

MDA-MB-468 = settings: Homo sapiens; MDA-MB-468 (Breast Cancer), NCI one dose 10 µM; read-out: Cell growth inhibition %
How it was run: as §1

NCI-H226 = settings: Homo sapiens; NCI-H226 (Non-Small Cell Lung Cancer), NCI one dose 10 µM; read-out: Cell growth inhibition %
How it was run: as §1

NCI-H23 = settings: Homo sapiens; NCI-H23 (Non-Small Cell Lung Cancer), NCI one dose 10 µM; read-out: Cell growth inhibition %
How it was run: as §1

NCI-H522 = settings: Homo sapiens; NCI-H522 (Non-Small Cell Lung Cancer), NCI one dose 10 µM; read-out: Cell growth inhibition %
How it was run: as §1

OVCAR-3 = settings: Homo sapiens; OVCAR-3 (Ovarian Cancer), NCI one dose 10 µM; read-out: Cell growth inhibition %
How it was run: as §1

PC-3 = settings: Homo sapiens; PC-3 (Prostate Cancer), NCI one dose 10 µM; read-out: Cell growth inhibition %
How it was run: as §1

RPMI-8226 = settings: Homo sapiens; RPMI-8226 (Leukemia), NCI one dose 10 µM; read-out: Cell growth inhibition %
How it was run: as §1

SF-268 = settings: Homo sapiens; SF-268 (CNS Cancer), NCI one dose 10 µM; read-out: Cell growth inhibition %
How it was run: as §1

SF-295 = settings: Homo sapiens; SF-295 (CNS Cancer), NCI one dose 10 µM; read-out: Cell growth inhibition %
How it was run: as §1

SK-MEL-28 = settings: Homo sapiens; SK-MEL-28 (Melanoma), NCI one dose 10 µM; read-out: Cell growth inhibition %
How it was run: as §1

SK-MEL-5 = settings: Homo sapiens; SK-MEL-5 (Melanoma), NCI one dose 10 µM; read-out: Cell growth inhibition %
How it was run: as §1

SK-OV-3 = settings: Homo sapiens; SK-OV-3 (Ovarian Cancer), NCI one dose 10 µM; read-out: Cell growth inhibition %
How it was run: as §1

SN12C = settings: Homo sapiens, SN 12C (Renal Cancer), NCI one dose 10 µM, read-out: Cell growth inhibition %
How it was run: as §1

SNB-75 = settings: Homo sapiens; SNB-75 (CNS Cancer), NCI one dose 10 µM; read-out: Cell growth inhibition %
How it was run: as §1

UACC-257 = settings: Homo sapiens; UACC-257 (Melanoma), NCI one dose 10 µM; read-out: Cell growth inhibition %
How it was run: as §1

UACC-62 = settings: Homo sapiens; UACC-62 (Melanoma), NCI one dose 10 µM; read-out: Cell growth inhibition %
How it was run: as §1

COc1cc(-c2nc3cc(-c4nnc(SCC(=O)Nc5ccc(C(=O)/C=C/c6ccc(Cl)cc6)cc5)o4)ccc3[nH]2)cc(OC)c1OC [Compound 7v, 2-{5-[2-(3,4,5-Trimethoxyphenyl)-1 H-benzo[d]imidazol-5-yl]-1,3,4-oxadiazol-2-ylthio}-N-{4-[(E)-3-(4-chlorophenyl)acryloyl]phenyl}acetamide]
inhibition at 10 µM (786-0): 9.2% | inhibition at 10 µM (A549/ATCC): 0% | inhibition at 10 µM (ACHN): 3.22% | inhibition at 10 µM (CAKI-1): 2.81% | inhibition at 10 µM (CCRF-CEM): 18.4% | inhibition at 10 µM (COLO 205): 0% | inhibition at 10 µM (DU-145): 0% | inhibition at 10 µM (EKVX): 0.51% | inhibition at 10 µM (HCC-2998): 0% | inhibition at 10 µM (HS 578T): 12.1% | inhibition at 10 µM (IGROV1): 18.4% | inhibition at 10 µM (KM12): 9.06% | inhibition at 10 µM (LOX IMVI): 132% | inhibition at 10 µM (MALME-3M): 0% | inhibition at 10 µM (MCF7): 40.9% | inhibition at 10 µM (MDA-MB-468): 6.96% | inhibition at 10 µM (NCI-H226): 8.31% | inhibition at 10 µM (NCI-H23): 0% | inhibition at 10 µM (NCI-H522): 7.4% | inhibition at 10 µM (OVCAR-3): 2.13% | inhibition at 10 µM (PC-3): 4.91% | inhibition at 10 µM (RPMI-8226): 42.8% | inhibition at 10 µM (SF-268): 0.81% | inhibition at 10 µM (SF-295): 2.25% | inhibition at 10 µM (SK-MEL-28): 0% | inhibition at 10 µM (SK-MEL-5): 8.57% | inhibition at 10 µM (SK-OV-3): 0% | inhibition at 10 µM (SN12C): 9.61% | inhibition at 10 µM (SNB-75): 14.7% | inhibition at 10 µM (UACC-257): 0% | inhibition at 10 µM (UACC-62): 16%

From PMC10504751, “Chalcone/1,3,4-Oxadiazole/Benzimidazole hybrids as novel anti-proliferative agents inducing apoptosis and inhibiting EGFR & BRAFV^600E” (BMC Chemistry, 2023)
